Measured values reported in patent publication US20180118722A1, “NOVEL ARYL-CYANOGUANIDINE COMPOUNDS” (Bayer Pharma Aktiengesellschaft, priority 2015, published 2018).

Experiments:
SMYD2 [1] = biological target: T1, SMYD2 (Homo sapiens, UniProt Q9NRG4); test: In Cell Western (ICW) cell-based assay for detection of SMYD2 methylation activity (p53K370me1) in SMYD2 overexpressing KYSE-150 cells; design: expressed in transfected cells; host or cells: KYSE-150 (human esophageal carcinoma, DSMZ ACC 375); details: 72 h treatment, p53K370me1 signal, read-out: IC50 [mol/l] (ICW assay)
T1 sequence (Q9NRG4 whole entry): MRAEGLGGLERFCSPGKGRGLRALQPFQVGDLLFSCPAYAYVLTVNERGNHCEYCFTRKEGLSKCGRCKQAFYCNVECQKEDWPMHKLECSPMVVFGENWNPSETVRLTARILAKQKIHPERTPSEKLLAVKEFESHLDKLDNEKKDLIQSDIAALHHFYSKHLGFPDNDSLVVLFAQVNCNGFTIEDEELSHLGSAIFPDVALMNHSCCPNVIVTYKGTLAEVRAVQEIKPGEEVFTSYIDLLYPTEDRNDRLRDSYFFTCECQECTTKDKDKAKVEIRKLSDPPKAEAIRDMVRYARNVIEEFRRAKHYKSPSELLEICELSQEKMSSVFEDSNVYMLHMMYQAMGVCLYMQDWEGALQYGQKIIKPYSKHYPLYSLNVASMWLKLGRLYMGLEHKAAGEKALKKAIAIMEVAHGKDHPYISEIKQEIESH
From the text: 1.2 Cell-Based Assay for Detection of SMYD2 Methylation Activity
For the detection of SMYD2 cellular methylation activity an In Cell Western (ICW) assay was established. This assay allows rapid processing of multiple samples for SMYD2 methylation derived immunofluorescence signals, with normalization to cell number via the use of the nucleic acid dye DRAQS. KYSE-150 cells (human esophageal carcinoma cell line; DSMZ-German Collection of Microorganisms and Cell Cultures; No: ACC 375) have been stably transfected with a construct expressing wild-type SMYD2 (NCBI Reference Sequence: NP_064582.2). […]
For conducting the ICW assay 5000 SMYD2 overexpressing KYSE-150 cells/well were seeded in 96-well plates (SIGMA) and cultivated for 24 h. […] After 5 washes with PBS, the fluorescence in each well was measured on an Odyssey (LI-COR) scanner at 800 nm (p53K370me1 signal; 764 nm excitation) and 700 nm (DRAQS signal; 683 nm excitation). Fluorescence intensity was quantified and normalized to background and DRAQS signals. IC50 values were calculated by fitting the normalized inhibition data to a 4-parameter logistic equation (Minimum, Maximum, IC50, Hill; Y=Max+(Min−Max)/(1+(X/IC50)Hill)) for each tested compound. For IC50 determination C0 (=no inhibition) was defined as the signal measured for DMSO treated controls. […]

SMYD2 [2] = biological target: T1, SMYD2; test: Scintillation proximity assay (SPA) for detection of SMYD2 enzymatic inhibition; assay type: biochemical; design: The SMYD2 full length enzyme was produced in-house by expression (with an N-terminal 6×His tag) in E. coli; 6xHis (N); made in house; host or cells: E. coli; details: p53 Peptide substrate 1.0 μM, 3H-SAM 60 nM, 30 min at 22° C.; read-out: IC50 [mol/l] (SPA Assay)
From the text: 1.1 Scintillation Proximity Assay (SPA) for Detection of SMYD2 Enzymatic Inhibition
SMYD2 inhibitory activities of the compounds described in the present invention were quantified using a scintillation proximity assay (SPA) which measures methylation by the enzyme of the synthetic, biotinylated peptide Btn-Ahx-[…]−Amid×TFA (Biosyntan) derived from p53 and referred to from here on as “p53 Peptide”. The SMYD2 full length enzyme was produced in-house by expression (with an N-terminal 6×His tag) in E. coli and purification by affinity chromatography on a Ni-NTA Sepharose column followed by a size exclusion chromatography step on a Superdex 200 16/60 column (GE Healthcare).
In a typical assay 11 different concentrations of each compound (0.1 nM, 0.33 nM, 1.1 nM, 3.8 nM, 13 nM, 44 nM, 0.15 μM, 0.51 μM, 1.7 μM, 5.9 μM and 20 μM) were tested in duplicate within the same microtiter plate. To this end, 100-fold concentrated compound solutions (in DMSO) were previously prepared by serial dilution (1:3.4) of 2 mM stocks in a clear low volume 384-well source microtiter plate (Greiner Bio-One), from which 50 nl of compound solutions were transferred into a white low volume test microtiter plate from the same supplier. […] IC50 values were calculated by fitting the normalized inhibition data to a 4-parameter logistic equation using the “Screener” analysis software from Genedata.

| IC50 (SMYD2 [1]) [nM] | IC50 (SMYD2 [2]) [nM] | Structure (SMILES) |
| --- | --- | --- |
| 100 | 31.6 | N#C/N=C(/Nc1cccc(OC(F)F)c1)N1CC(N2CCCC(N)C2=O)C(c2ccc(Cl)c(Cl)c2)=N1 (stereo not shown) [Example 1, 4-(3-amino-2-oxopiperidin-1-yl)-N′-cyano-3-(3 ,4-dichlorophenyl)-N-[3-(difluoromethoxy)phenyl]-4,5-dihydro-1H-pyrazole-1-carboximidamide] |
| 171 | 302 | N#C/N=C(/Nc1cccc(OC(F)F)c1)N1CC(N2CCC(N)C2=O)C(c2ccc(Cl)c(Cl)c2)=N1 (stereo not shown) [Example 2, 4-(3-amino-2-oxopyrrolidin-1-yl)-N′-cyano-3-(3,4-dichlorophenyl)-N-[3-(difluoromethoxy)phenyl]-4,5-dihydro-1H-pyrazole-1-carboximidamide] |
